What was measured:
Assay type in all cases: cell-based, human
[1] = system: MM cell lines MM1.S, MM1.R, RPMI-8226 (RPMI) and U266; assay: Cell viability of MM cell lines (MTT / WST-8 assay); settings: 18 h; for cell viability of all MM cell lines tested as compared to untreated control cells: WIN-55 0.5-50 uM, JWH-133 0.05-1 mM
From the text: (§1) Human multiple myeloma cell lines MM1.S, MM1.R, RPMI-8226 (RPMI) and U266 were purchased from American Type Culture Collection [(ATCC), LGC Standards, Manassas, USA]. Human primary cells were obtained from MM patients' bone marrow (BM) and healthy donors' peripheral blood (PB). PB samples were collected from buffy coats and leukapheresis products, previously mobilized with granulocyte colony stimulating factor (G-CSF). Hematopoietic progenitor cells (CD34+) were isolated from leukaphesesis samples, and B (CD19+) and T (CD3+) lymphocytes from buffy coats by positive immunomagnetic separation in the AutoMACS pro separator (Miltenyi Biotec, Bergisch Gladbach, Germany). For this purpose CD34-, CD19- and CD3-MACS microbead Human Kit (Miltenyi Biotec, Bergisch Gladbach, Germany). The purity of all isolated cells was higher than 95% in all cases. BM samples were obtained from five MM patients. In all cases, BM plasma cell infiltration was greater than 30%. The different cell subpopuplations from MM patients BM were not separated, but they were identified by flow cytometry using a suitable combination of antibodies: anti-CD64-FITC, anti-CD34-PE, anti-CD56-APC, anti-CD38-APC-H7, and anti-CD45-Pacific Blue (BD Biosciences, San Jose, Calif.).
Except if otherwise indicated, for the viability assays primary cells were incubated 18 hours, with vehicle (with <0.15% DMSO) or cannabinoid. Meanwhile, the time course assays cells were performed at 0, 2, 6, 18 and 24 h. For the analysis of SPT activity, cells were co-incubated for the first 6 hours with the SPT inhibitor, myriocin, and the cannabinoid, WIN-55 or JWH-133.
The working concentrations of cannabinoids were determined by dose-response curves (data not shown) and selected within the linear range between observed safe and hazardous levels. […]
Cell viability of cell lines and CD34+, CD19+ and CD3+ cells was measured using the Cell Counting Kit-8 (Dojindo Molecular Technologies, Gaithersburg, Md.). This assay is based on the reduction of salt WST-8 by a mitochondrial dehydrogenase in viable cells, resulting in a colored formazan product that can be measured spectrometrically at 450 nm. […] After treatment, 10 ul salt WST-8 [2-(4-lodophenyl)-3-(4-nitrophenyl)-5-(2,4-disulfophenyl)-2H-tetrazolium] was added to each well and incubated for an additional 2 h at 37° C., and then the absorbance of generated formazan was measured in a plate reader Multiskan™ Go Microplate (Thermo Fisher Scientific, Waltham, Mass., USA).
Firstly, we assessed the effect of cannabinoids WIN-55 and JWH-133 on cell viability. To this end, the cells were treated with increasing concentrations of cannabinoids, WIN-55 (0.5-50 uM) and JWH-133 (0.05-1 mM), for 18, 48 and 96 hours, and viability was analyzed by MTT assays and flow cytometry. […]

[2] = system: lymphocytes; assay: Viability of normal residual lymphocytes in bone marrow samples of MM patients (flow cytometry); settings: for viability of lymphocytes: all doses except the highest dose tested; for dose at which lymphocytes were affected (highest dose tested): bone marrow of MM patients
From the text: as §1
Further, cell viability of bone marrow cell populations from patients was assessed by flow cytometry using 7-amino-actinomycin D [(7-AAD), BD Biosciences] together with a combination of monoclonal antibodies against myeloma-associated antigens (anti-CD56-APC, anti-CD45-Pacific Blue, and anti-CD38-APC-H7 [BD Biosciences]) and antibodies to discriminate the granulomonocytic (anti-CD64-FITC) and lymphocytic (anti-CD45-Pacific Blue) populations. Cells were incubated for 15 minutes at room temperature in the dark with suitable antibodies and 7-AAD, and after washing a total of 100 000 cells were acquired on FACSCanto II flow cytometer (BD Biosciences). Fluorescent intensity was quantified and analyzed using Infinicyt™ Software (Cytognos, Salamanca, Spain). Additionally, cell viability of MM cell lines and the peripheral blood CD34+, CD3+ and CD19+ cell populations from healthy donors was also analyzed by flow cytometry using 7-AAD, with the same protocol above described.
Once determined the antiproliferative effect of cannabinoids on tumor cells, both primary and cell lines, our aim was to test whether or not these drugs could also affect the viability of the counterpart normal cells, both normal residual populations from bone marrow samples obtained from MM patients as well as hematopoietic stem cells (CD34+) from healthy donors. […] Granulocytes and lymphocytes, were also unaffected by both cannabinoids, except for the lymphocytes at the highest doses tested, 50 uM for WIN-55 and 1 mM for JWH-133 (FIG. 2a,b).

[3] = system: T-cells (CD3+); assay: Cell viability of T-cells (MTT)
[4] = system: blasts from AML patients; assay: Cell viability of blasts from AML patients (MTT)
[5] = system: B-cells (CD19+); assay: Cell viability of B-cells (MTT)

SMILES	sensitivity pattern of the MM cell lines [1]	cell viability of all MM cell lines tested as compared to untreated control cells [1]	viability of lymphocytes [2]	dose at which lymphocytes were affected (highest dose tested) [2]	viability of T-cells [3]	cell viability of blasts from AML patients [4]	viability of B-cells [5]
CCCC(C)(C)c1ccc2c(c1)OC(C)(C)[C@@H]1CC=C(C)C[C@@H]21 [JWH-133, (6aR,10aR)-3-(1,1-Dimethylbutyl)-6a,7,10,10a-tetrahydro-6,6,9-trimethyl-6H-dibenzo [b,d] pyran]	decreasing from MM1.R, RPMI, MM1.S to U266	significantly reduced	unaffected	1 mM	remained unaffected	reduce the cell viability	decreased viability
CS(=O)(=O)O.Cc1c(C(=O)c2cccc3ccccc23)c2cccc3c2n1[C@H](CN1CCOCC1)CO3 [WIN-55, (R)-(+)-[2,3-dihydro-5-methyl-3-(4-morpholinylmethyl)-pyrrolo-[1,2,3]-1,4-benzoxazin-6-yl]-1-naphthalenylmethanone mesylate]	MM1R and RPMI were the most sensitive	significantly reduced	unaffected	0.05 mM	remained unaffected	reduce the cell viability	decreased viability
